According to patent US20070072209A1, “Methods of treatment and diagnosis of Kaposi's sarcoma (KS) and KS related diseases” (priority 2005, published 2007):

Legend:
KSHV-infected DMVEC [1] = settings: cited from earlier work
Uninfected DMVEC = settings: cited from earlier work
KSHV-infected DMVEC [2] = settings: cited from earlier work; remark: listed apart in the source
KSHV-infected DMVEC [3] = assay: PMO antisense inhibition of KSHV-induced spindle cell and foci formation (Example 3); format: cell-based, human; settings: for Extent of PMO-induced Inhibition of Spindle Cell Formation: KSHV-infected DMVEC loaded with gene-specific PMO antisense + EPEI; for Phenotype Inhibition (inhibition of spindle cell formation) / KSHV-induced spindle cell / foci formation (in words): KSHV-infected DMVEC; for Phenotype Inhibition (inhibition of spindle cell formation): gene-specific PMO antisense; for KSHV-induced spindle cell / foci formation (in words): PMO antisense, c-Kit: 1.25 nmol PMO + 2.5 μl EPEI per 35 mm dish
Source text: Antisense Gene Silencing using PMOs. […] Silencing of such genes precluded progression into the transformed phenotype when silencing occurred prior to transformation, or induced reversion to the normal state when silencing occurred after induction of the transformed state (see TABLE 2 below).
Introduction of antisense PMO into KSHV-infected DMVEC. Antisense PMO molecules, for delivery purposes, are typically converted to a paired duplex together with a partially complementary cDNA oligonucleotide in the weakly basic delivery reagent ethoxylated polyethylenimine (EPEI) (Summerton, supra). The anionic complex binds to the cell surface, is taken up by endocytosis and eventually released into the cytosol. A protocol for optimum uptake of antisense PMO in immortalized DMVEC was developed using a modification of the EPEI method. Briefly, uninfected, immortalized DMVECs were incubated for 3 hours at 37° C. with 0.6 nmol/well FITC-PMO complexed with EPEI according to the manufacturer's instructions (GeneTools, LLC, One Summerton Way, Philomath, Oreg. 97370) (e.g., 1.25 nMol oligomer with 2.5 μl EPEI reagent per 35 mm dish, allowing for sufficient antisense uptake without non-specific EPEI-induced toxicity). The PMOs were labeled with FITC to allow for monitoring of loading efficiency by fluorescence microscopy.
Specifically, DMVEC were infected with KSHV, plated in 35 mm dishes and allowed to grow to about 90% confluence. For treatment, KSHV-infected cells were treated with the anti-c-Kit PMO-antisense oligomer-EPEI delivery reagent complex and incubated for 3 hours at 37° C. in serum-free medium to allow for oligomer uptake. A titration experiment testing a range of different oligomer/EPEI volumes was used to determine that loading 1.25 nmol oligomer with 2.5 μl EPEI reagent per 35 mm dish allowed efficient antisense uptake without non-specific EPEI-induced toxicity. Control (mock-treated) DMVEC cultures were loaded with EPEI reagent and sterile water or sterile water alone. Upon removal of the oligomer-EPEI solution, cell monolayers were rinsed in serum-free medium fed with complete medium and examined daily for one week by phase microscopy for evidence of phenotypic change.

KSHV-infected DMVEC [4] = assay: XTT proliferation assay of PMO-loaded KSHV-infected DMVEC (Example 3); format: cell-based, human; settings: PMO antisense silencing
Experimental: Proliferation assays, and loading of cells with PMOs. Proliferation of KSHV-infected DMVEC was quantified using an XTT (2,3-bis-(2-methoxy-4-nitro-5-sulfophenyl)-2H-tetrazolium-5-carboxanilide, disodium salt)-based assay. KSHV-infected cells were added to Primaria 96-well trays (Becton Dickinson) at 1×10^4 or 5×10^4 cells/well. XTT (Roche, Molecular Biochemicals, Indianapolis, Ind.) was added 48 hours later according to the manufacturer's instructions. Absorbance was read after 4 to 6 hours on a microplate reader.
Briefly, cells were plated in 96-well trays at a density approaching confluence (5×10^4 cells per well) in 100 μl of complete medium. PMOs were loaded the following day in a total of 100 μl (0.5 μl PMO, 0.5 μl EPEI, 49 μl H2O and 50 μl serum free medium) with reagent mixing as described by the manufacturer (GeneTools). Controls included a FITC PMO control oligonucleotide, EPEI only or H2O only. Each variable was performed in quadruplicate. Fresh complete medium was replaced 4 hours after loading. Cells were cultured for 4 days to allow for multi-layered cell growth post-confluence in the absence of any growth inhibition. XTT was added on day 4 of culture and the absorbance read 4 hrs later on a microplate reader. Cell proliferation (growth) values are given as percentage inhibition values, relative to cells without PMO, which are adjusted to 100%.

KSHV-infected DMVEC [5] = assay: Morpholino treatment and focus inhibition assay (Example 5); format: cell-based, human; settings: for Foci/spindle morpholigical inhibition: PMO-treated KSHV-infected DMVEC vs control PMO, repeated three times
Experimental: Morpholino Treatment and Focus Inhibition Assay. Phosphorodiamidate morpholino antisense oligonucleotides (PMO-AS) were designed and synthesized by Gene Tools LLC (Philomath, Oreg.) as a Special Delivery formulation, which pairs the morpholino with a partially complementary DNA oligo. A weakly basic delivery agent, Ethoxylated Polyethlyenimine (EPEI) is then used to deliver the anionic morpholino/DNA duplex into the cytosol. PMO-AS were received as sterile, lyophilized solids ([…]) that were solubilized in sterile water to obtain 0.5 mM stock solutions. To load a 35 mm dish of DMVEC at 90% confluence, 5 microl of stock solution was mixed with 5 microl of EPEI delivery solution in 590 μl H20 for 20 minutes at room temperature, and then mixed with 1.5 ml of serum-free RPMI medium. Endothelial growth media was removed from DMVEC, and replaced with the PMO-AS:EPEI:RPMI delivery solution for 3 hours in a 37° C. incubator. After incubation, cells were rinsed, complete endothelial growth medium was added and cells were cultured for up to 10 days without sub-culture, with media replacement every 48-72 hours. This protocol allows for the characteristic post-confluent growth and development of multi-layered spindle-cell aggregates (foci) in KSHV-infected cultures. Cells were monitored daily under the phase microscope to evaluate PMO-AS-inhibition of the development of these foci. At the conclusion of an assay, cells were fixed in 2% paraformaldehyde and stained with a MAB against CD31 (Dako; 1:100) followed by a goat-anti-mouse FITC second conjugate. Junctional staining of cells with CD31 accentuated the disorganized multi-layered nature of the spindle cell aggregates as composed to the flat, organized profile of contact-inhibited cells.
For these assays, KSHV-infected DMVEC monolayers were cultured to 90% confluence and then loaded with each PMO-AS, or maintained as unloaded controls. Cultures were observed daily until control cultures had developed prominent multi-layered aggregates of spindle cells. Typically this took 5-10 days with some variation between replicate experiments. Each experiment was performed at least three times and was performed with mock-infected as well as KSHV-infected DMVEC. As expected, mock-infected DMVEC maintained a quiescent monolayer at confluence, and PMO-AS treatment of uninfected cells occurred without any adverse effect. This observation allowed verification that none of the gene knockdown treatments induced non-specific toxicity in DMVEC. The majority of tested PMO-AS had no effect on the ability of KSHV-infected DMVEC to grow post-confluence and form disorganized, multi-layered foci (TABLE 2).

Molecule | nonspecific cytotoxicity (cell viability controls) (KSHV-infected DMVEC [1]) | proliferative response to exogenous SCF (KSHV-infected DMVEC [1]) | effect on cell morphology or viability (Uninfected DMVEC) | focus formation (KSHV-infected DMVEC [2]; KSHV-infected DMVEC) | phenotype after removal of drug (KSHV-infected DMVEC [2]; even after exposure of cells to a 10 μM dose) | Extent of PMO-induced Inhibition of Spindle Cell Formation (KSHV-infected DMVEC [3]) | Phenotype Inhibition (inhibition of spindle cell formation) (KSHV-infected DMVEC [3]) | KSHV-induced spindle cell / foci formation (in words) (KSHV-infected DMVEC [3]) | inhibition of KSHV-induced cellular proliferation (in words) (KSHV-infected DMVEC [4]) | Foci/spindle morpholigical inhibition (KSHV-infected DMVEC [5]) | effect on phenotype (foci, spindle shape) in focus-inhibition assay (in words) (KSHV-infected DMVEC [5]; PMO-AS, KSHV-infected DMVEC, 5-10 days)
Cc1ccc(NC(=O)c2ccc(CN3CCN(C)CC3)cc2)cc1Nc1nccc(-c2cccnc2)n1 [STI 571] | not due to nonspecific cytotoxicity | inhibited | has effect on cell morphology or viability | focus formation is inhibited | regeneration of the transformed phenotype |  |  |  |  |  | 
ANGPTL2: PMO antisense to ANGPTL2, AGCATGTCACGCACAGTGGCCTCAT (SEQ ID NO:33) (all phosphorodiamidate morpholino (PMO); delivered paired with partially complementary DNA oligo (Special Delivery)) |  |  |  |  |  | intermediate | Intermediate | intermediate inhibitory effects |  |  | 
IFACTOR: PMO antisense to IFACTOR, AGCTTCATGTTGGAGGTGTTCG (SEQ ID NO:22) (all phosphorodiamidate morpholino (PMO); delivered paired with partially complementary DNA oligo (Special Delivery)) |  |  |  |  |  | none | None | little or no affect | relatively little or no significant inhibition |  | 
IGFBP2: PMO antisense to IGFBP2, GGCAGCCCACTCTCTCGGCAGCATG (SEQ ID NO:16) (all phosphorodiamidate morpholino (PMO); delivered paired with partially complementary DNA oligo (Special Delivery)) |  |  |  |  |  | full | Full | fully reversed spindle cell formation | substantial inhibition | Full | 
INSR: PMO antisense to INSR, GGGTCTCCTCGGATCAGGCGCG (SEQ ID NO:20) (all phosphorodiamidate morpholino (PMO); delivered paired with partially complementary DNA oligo (Special Delivery)) |  |  |  |  |  | intermediate | Intermediate | intermediate inhibitory effects | substantial inhibition | Intermediate | marginal but reproducible effect on phenotype
K1AA0367: PMO antisense to KIAA0367, GTCAGTTTACTCATGTCATCTATTG (SEQ ID NO:18) (all phosphorodiamidate morpholino (PMO); delivered paired with partially complementary DNA oligo (Special Delivery)) |  |  |  |  |  | intermediate | Intermediate | intermediate inhibitory effects | substantial inhibition |  | 
LMO2: PMO antisense to LMO2, GCCGAGGACATTGGGGAGGGAGGCG (SEQ ID NO:23) (all phosphorodiamidate morpholino (PMO); delivered paired with partially complementary DNA oligo (Special Delivery, EPEI)) |  |  |  |  |  | none |  | little or no affect |  | None | 
LOX: PMO antisense to LOX, GGAGCACGGTCCAGGCGAAGCGCAT (SEQ ID NO:31) (all phosphorodiamidate morpholino (PMO); delivered paired with partially complementary DNA oligo (Special Delivery, EPEI)) |  |  |  |  |  | full | Full | fully reversed spindle cell formation |  |  | 
MFAP3: PMO antisense to MFAP3, TGAATAAGCAACAATGTAGCTTCAT (SEQ ID NO:24) (all phosphorodiamidate morpholino (PMO); delivered paired with partially complementary DNA oligo (Special Delivery, EPEI)) |  |  |  |  |  | none | no and None | little or no affect | relatively little or no significant inhibition | None | 
NOV: PMO antisense to NOV, AGCTCGTGCTCTGCACACTCTGCAT (SEQ ID NO:32) (all phosphorodiamidate morpholino (PMO); delivered paired with partially complementary DNA oligo (Special Delivery, EPEI)) |  |  |  |  |  | full | Full | fully reversed spindle cell formation |  |  | 
Osteopontin |  |  |  |  |  |  | None |  | relatively little or no significant inhibition | None | 
